{"source": "patent US20040248918A1", "about": "“N-phenyl-2-pyrimidine-amine derivatives and process for the preparation thereof” (IL YANG PHARM. CO., LTD., priority 2003, published 2004)", "key": {"[1]": {"test_system": "U937 cancer cell (monocyte like leukemia cell line)", "experiment": "Growth inhibition of U937 cancer cell (MTT)", "type": "cell-based", "settings": "for IC50: Homo sapiens, U-937", "protocol": "(§1) In the present experiment, the inhibitory activity of the compound of formula (1) was determined against the growth of K562 cancer cell. First, the cells were allowed to stand in RPMI (Roswell Park Memorial Institute)-1640 medium containing 10% (v/v) fetal bovine serum in an incubator of 37° C. and 5% by volume of CO2. The cancer cells (1000 cells) were transferred to a 96-well plate, and the test compound was diluted. The plate was allowed to stand under the above mentioned conditions for 2 days. After this treatment, to the cells was added 0.2% MTT (3-[4,5-dimethylthiazol-2-yl]-2,5-diphenyltetrazolium bromide) solution, and the resulting mixture was allowed to stand under the constant temperature-condition for 4 hours. The supernatant was removed to leave the resulting crystal. DMSO was added to dissolve the crystal, and the absorbance of the solution was measured at 540 nm. IC50 value was calculated using a computer system according to the following formula: […]\nIn the present experiment, the inhibitory activity of the compound of formula (1) was determined against the growth of U937 cancer cell. The test was performed according to the same procedure as Experiment 1."}, "[2]": {"test_system": "pancreatic cancer cell of CAPAN-2", "experiment": "Growth inhibition of CAPAN-2 (MTT)", "type": "cell-based", "settings": "for Improved activity versus 5-Fu / Improved activity versus cisplatin: CAPAN-2; for IC50: Homo sapiens, Capan-2, read-out: IC50"}, "[3]": {"test_system": "cervical cancer cell of HeLa229", "experiment": "Growth inhibition of HeLa 229 (MTT)", "type": "cell-based", "settings": "for IC50: Homo sapiens, read-out: IC50"}, "[4]": {"test_system": "encephalophyma cell of A172", "experiment": "Growth inhibition of A172 (MTT)", "type": "cell-based", "settings": "for IC50: Homo sapiens, A 172, read-out: IC50", "protocol": "as §1\nThe test was performed according to the same procedure as Experiment 1."}, "[5]": {"experiment": "Acute toxicity test in mice (oral administration)", "settings": "both sexes, ICR, mouse, in vivo, 2000 mg/kg; mice, oral", "protocol": "(§2) In order to determine the acute toxicity of the compound of the present invention when the compound is orally administered, mice (ICR, 24˜26 g) were fasted for 16 hours. One group consists of 10 males and 10 females. The first group is the control group and physiological saline was administered per oral to this group. The compounds of Examples 2 and 4 were orally administered in a dosage of 2000 mg/kg, the maximum dosage in acute toxicity test, to each test group. […] On the last day of the test, 14th day from the start, the mice were subjected to an autopsy in order to examine changes of the internal organs. […] This means that the compounds of the present invention including those of Examples 2 and 4 are safe in the aspect of acute toxicity."}, "mice (ICR) [6]": {"test_system": "mice (ICR)", "experiment": "Acute toxicity test in mice (oral administration)", "settings": "mouse, in vivo, po, 2000 mg/kg", "protocol": "as §2"}, "[7]": {"experiment": "Acute toxicity test in mice (intravenous administration)", "type": "in vivo", "settings": "both sexes, ICR, mouse, in vivo, iv; mice, intravenously administered", "protocol": "(§3) In this test, the acute toxicity of the compound of the present invention when the compound is intravenously administered was determined on mice (ICR, 24˜26 g). One group consists of 10 males and 10 females. The first group is the control group and physiological saline was intravenously administered to this group. The compound of Example 10 was intravenously administered in dosages of 25, 50, 75, and 100 mg/kg, respectively, to each test group. […] On the last day of the test, 14th day from the start, the mice were subjected to an autopsy in order to examine changes of the internal organs. […] No mouse died in these test groups. Further, in the test group of 100 mg/kg dosage, 8 mice among 10 died within 10 minutes after the administration."}, "mice (ICR) [8]": {"test_system": "mice (ICR)", "experiment": "Acute toxicity test in mice (intravenous administration)", "type": "in vivo", "protocol": "as §3"}, "sarcoma-180": {"test_system": "sarcoma-180", "experiment": "Anti-cancer activity in sarcoma animal model", "type": "in vivo, ICR mouse", "settings": "day 30; for Average tumor weight (Mean ± S.E.): three times at intervals of 4 days, in g (unit assumed)", "protocol": "The anti-cancer activity against sarcoma-180 was determined using ICR mouse (22˜25 g, male). Sarcoma-180 (0.1 ml; 5×10^7 cells/ml) was hypodermically implanted to the left inguinal area of the mouse. After 72 hours from the hypodermic implantation, physiological saline was intravenously administered to the control group. For the test groups, the compound of Example 10 dissolved in physiological saline in a concentration of 25 or 50 mg/kg was intravenously administered three times at intervals of 4 days. On the 30th day from the implantation of the tumor cell, the mice were sacrificed to take out the induced solid tumors. The solid tumors were weighed, the average weight of the tumors was obtained, and the percent inhibition ratio was calculated according to the following formula:\nInhibition ratio (I.R.) (%)=[(Cw−Tw)/Cw]×100\nI.R. represents the percent inhibition ratio,\nCw represents the average weight of tumor of the control group; and\nTw represents the average weight of tumor of the test group."}}}
{"smiles": "CS(=O)(=O)O.Cc1ccc(NC(=O)c2ccc(CNN3CCN(C)CC3)cc2)cc1Nc1nccc(-c2cccnc2)n1", "note": "[Example 4, 4-(4-methylpiperazin-1-ylaminomethyl)-N-[4-methyl-3-(4-(pyridin-3-yl)pyrimidin-2-yl)aminophenyl]benzamide methanesulfonate]", "values": [{"measurement": "Improved activity versus Imatinib mesylate", "setting": "[1]", "value": 30, "unit": "times"}, {"measurement": "IC50", "setting": "[1]", "value": 0.9, "unit": "µg/mL"}, {"measurement": "Improved activity versus 5-Fu", "setting": "[2]", "value": 17, "unit": "times"}, {"measurement": "Improved activity versus cisplatin", "setting": "[2]", "value": 9, "unit": "times"}, {"measurement": "IC50", "setting": "[2]", "value": 56.3, "unit": "µg/mL"}, {"measurement": "IC50", "setting": "[3]", "value": 48.5, "unit": "µg/mL"}, {"measurement": "IC50", "setting": "[4]", "value": 39.3, "unit": "µg/mL"}, {"measurement": "LD50 at 14 days", "setting": "[5]", "value": "≥ 2000", "unit": "mg/kg"}, {"measurement": "Clinical conditions and autopsy", "setting": "mice (ICR) [6]", "value": "neither abnormal response nor specific autopsy result was observed"}, {"measurement": "Mortality during the test period", "setting": "mice (ICR) [6]", "value": "no mouse died"}]}
{"smiles": "CN1CCCN(Cc2ccc(C(=O)Nc3ccc(Nc4nccc(-c5cccnc5)n4)cc3)cc2)CC1.CS(=O)(=O)O", "note": "[Example 10, 4-(4-methylhomopiperazin-1-ylmethyl)-N-[4-(4-(pyridin-3-yl)pyrimidin-2-yl)aminophenyl]benzamide methanesulfonate]", "values": [{"measurement": "IC50", "setting": "[1]", "value": 7.3, "unit": "µg/mL"}, {"measurement": "Improved activity versus 5-Fu", "setting": "[2]", "value": "> 20", "unit": "times"}, {"measurement": "Improved activity versus cisplatin", "setting": "[2]", "value": "more than 10 times"}, {"measurement": "IC50", "setting": "[2]", "value": 45.9, "unit": "µg/mL"}, {"measurement": "Improved activity versus Imatinib mesylate", "setting": "[3]", "value": "more than 8 times"}, {"measurement": "IC50", "setting": "[3]", "value": 5.5, "unit": "µg/mL"}, {"measurement": "Improved activity versus 5-Fu", "setting": "[4]", "value": "more than 18 times"}, {"measurement": "Improved activity versus Imatinib mesylate", "setting": "[4]", "value": "more than 8 times"}, {"measurement": "IC50", "setting": "[4]", "value": 5.5, "unit": "µg/mL"}, {"measurement": "LD50 at 14 days", "setting": "[7]", "value": "75 to 100", "unit": "mg/kg"}, {"measurement": "Clinical conditions and autopsy", "setting": "mice (ICR) [8]; 25 mg/kg i.v., 14 days", "value": "neither abnormal response nor specific autopsy"}, {"measurement": "Mice died", "setting": "mice (ICR) [8]; 100 mg/kg i.v., within 10 minutes after the administration", "value": 8, "unit": "mice among 10"}, {"measurement": "Clinical conditions", "setting": "mice (ICR) [8]; 50 and 75 mg/kg i.v.", "value": "weak trembling immediately after the administration"}, {"measurement": "Mortality", "setting": "mice (ICR) [8]; 50 and 75 mg/kg i.v.", "value": "No mouse died"}, {"measurement": "Time to recovery from trembling", "setting": "mice (ICR) [8]; 50 and 75 mg/kg i.v.", "value": "≤ 1", "unit": "h"}, {"measurement": "Percent Inhibition Ratio (I.R.)", "setting": "sarcoma-180; 25 mg/kg i.v.", "value": 36.1, "unit": "%"}, {"measurement": "Average tumor weight (Mean ± S.E.)", "setting": "sarcoma-180; 25 mg/kg i.v.", "value": "2.09 ± 1.4"}, {"measurement": "Percent Inhibition Ratio (I.R.)", "setting": "sarcoma-180; 50 mg/kg i.v.", "value": 63.0, "unit": "%"}, {"measurement": "Average tumor weight (Mean ± S.E.)", "setting": "sarcoma-180; 50 mg/kg i.v.", "value": "1.21 ± 1.2"}]}
